These results are taken from ChEMBL document CHEMBL1821717, “Synthesis and biochemical evaluation of triazole/tetrazole-containing sulfonamides against thrombin and related serine proteases” (Bioorg Med Chem Lett, 2011).

For assay [1], the target named is T1, Chymase (Homo sapiens) (UniProt P23946).
T1 sequence (whole entry): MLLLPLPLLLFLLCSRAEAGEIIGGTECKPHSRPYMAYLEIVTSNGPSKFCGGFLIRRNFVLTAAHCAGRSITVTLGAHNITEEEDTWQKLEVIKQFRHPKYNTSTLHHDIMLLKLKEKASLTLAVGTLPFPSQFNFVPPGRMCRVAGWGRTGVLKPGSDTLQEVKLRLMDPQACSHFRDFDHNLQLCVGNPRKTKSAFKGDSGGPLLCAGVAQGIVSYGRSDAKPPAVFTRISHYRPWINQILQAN
Put plainly: Inhibition of human chymase assessed as residual enzyme activity using chromogenic N-succinyl-Ala-Ala-Pro-Phe p-nitroanilide as substrate at 10 uM pre-incubated for 10 mins by spectrophotometry relative to untreated control. It counts as single protein.

Assay [2] is filed under the species Homo sapiens. Put plainly: Inhibition of human tryptase assessed as residual enzyme activity using chromogenic H-D-HHT-Ala-Arg-pNA 2AcOH as substrate at 10 uM pre-incubated for 10 mins measured for 30 mins by spectrophotometry relative to untreated control.
Assay [3] is described as follows: Inhibition of bovine pancreatic trypsin using chromogenic N-alpha-bemzoyl-arginine ethyl ester hydrochloride as substrate pre-incubated for 10 mins by spectrophotometry. The arrangement: species or system Bos taurus.
The nature of assay [4]: Ratio of Ki for bovine pancreatic trypsin to Ki for human thrombin.

Broadly, the Ki is a dissociation constant, usually derived from enzyme kinetics or from competition with a known ligand. A lower Ki goes with a stronger hold on the target.

Consider `O=[N+]([O-])c1cccc(/C=C/S(=O)(=O)Nc2cccc(OCc3cn(Cc4cc5ccccc5[nH]4)nn3)c2)c1`, for which the values for the Ratio in assay [1] and in assay [2] were 1 and 0.98, respectively.

`O=[N+]([O-])c1cccc(/C=C/S(=O)(=O)Nc2cccc(OCc3cn(Cc4cc5ccccc5s4)nn3)c2)c1` had a Ki in assay [3] of 122 µM. The Ratio turned out to be 0.89 in assay [1] and 1 in assay [2]. Further, the Ratio Ki in assay [4] was 71.

`O=S(=O)(/C=C/c1cccc(C(F)(F)F)c1)Nc1cccc(OCc2cn(Cc3cc4ccccc4s3)nn2)c1` came in with a Ki in assay [3] of 127 µM. The Ratio in assay [1] stood at 0.99; in assay [2], 0.97. Further, the Ratio Ki in assay [4] was determined as 64.

Take `O=S(=O)(/C=C/c1cccc(C(F)(F)F)c1)Nc1cccc(-c2nnn(Cc3cccc(Cl)c3)n2)c1`: the Ratio in assay [1] was 0.97; in assay [2], 1.

As for `O=S(=O)(/C=C/c1cccc(F)c1)Nc1cccc(-c2nnn(Cc3cccc(Cl)c3)n2)c1`, the Ratio amounted to 0.91 in assay [1] and 0.97 in assay [2].

Regarding `O=S(=O)(/C=C/c1cccc(Br)c1)Nc1cccc(-c2nnn(Cc3cccc(Cl)c3)n2)c1`, the Ratio in assay [1] was determined as 0.95; in assay [2] it was 1.

With `O=S(=O)(/C=C/c1cccc(F)c1)Nc1cccc(OCc2cn(Cc3cccnc3)nn2)c1`, the results for the Ratio in assay [1] and in assay [2] were 0.99 and 1, respectively.

With `O=S(=O)(/C=C/c1cccc(Cl)c1)Nc1cccc(OCc2cn(Cc3ccsc3)nn2)c1`, the values for the Ratio in assay [1] and in assay [2] were 0.99 and 0.95, respectively.

On to `O=S(=O)(/C=C/c1cccc(Cl)c1)Nc1cccc(-c2nnn(Cc3cccc(Cl)c3)n2)c1`, for which the Ratio in assay [1] came out at 0.97; in assay [2] it was 1.

The compound `O=S(=O)(/C=C/c1cccc(Cl)c1)Nc1cccc(OCc2cn(Cc3cc4ccccc4s3)nn2)c1` showed an inhibition constant Ki in assay [3] of 729 µM.

Regarding `O=S(=O)(/C=C/c1cccc(Cl)c1)Nc1cccc(OCc2cn(Cc3ccsc3Br)nn2)c1`, the Ratio in assay [1] turned out to be 0.96; in assay [2], 0.98.

Turning to `O=S(=O)(/C=C/c1cccc(Cl)c1)Nc1cccc(OCc2cn(Cc3ccccc3)nn2)c1`, the Ratio in assay [1] was 1; in assay [2], 0.97.

Take `COc1cccc(/C=C/S(=O)(=O)Nc2cccc(-c3nnn(Cc4cccc(Cl)c4)n3)c2)c1`: the Ratio in assay [1] and in assay [2] was 1 in each case.

Turning to `O=S(=O)(/C=C/c1cccc(F)c1)Nc1cccc(OCc2cn(Cc3cc4ccccc4s3)nn2)c1`, in assay [3], the Ki was determined as 119 µM. Further, the Ratio in assay [1] and in assay [2] was 0.95 throughout. In addition, in assay [4], the Ratio Ki was 48.

On to `O=S(=O)(/C=C/c1cccc(Cl)c1)Nc1cccc(OCc2cn(Cc3cccnc3)nn2)c1`, for which the values for the Ratio in assay [1] and in assay [2] were 0.98 and 0.99, respectively.

In assay [3], `Nc1cccc(/C=C/S(=O)(=O)Nc2cccc(OCc3cn(Cc4cc5ccccc5s4)nn3)c2)c1` gave a Ki of 71 µM. Moreover, the Ratio in assay [1] was determined as 0.88; in assay [2], 0.99. Besides, the Ratio Ki in assay [4] is 41.

Consider `O=[N+]([O-])c1cccc(/C=C/S(=O)(=O)Nc2cccc(OCc3cn(Cc4cccnc4)nn3)c2)c1`, for which the Ratio in assay [1] and in assay [2] was 1 throughout.

In turn, `O=[N+]([O-])c1cccc(/C=C/S(=O)(=O)Nc2cccc(OCc3cn(Cc4nc5ccccc5s4)nn3)c2)c1` returned a Ki in assay [3] of 187 µM. Moreover, the Ratio came to 0.95 in assay [1] and 1 in assay [2]. Further, the Ratio Ki in assay [4] was determined as 41.

For `CS(=O)(=O)Nc1cccc(-c2nnn(Cc3cccc(Cl)c3)n2)c1`, the Ratio in assay [1] turned out to be 0.95; in assay [2], 0.97.

Consider `O=S(=O)(/C=C/c1cccc(C(F)(F)F)c1)Nc1cccc(OCc2cn(Cc3cccnc3)nn2)c1`, for which the Ratio in assay [1] was determined as 1; in assay [2], 0.96.

With `Cc1cccc(/C=C/S(=O)(=O)Nc2cccc(-c3nnn(Cc4cccc(Cl)c4)n3)c2)c1`, the results for the Ratio in assay [1] and in assay [2] were 0.99 and 1, respectively.

As to `O=S(=O)(/C=C/c1cccc(Cl)c1)Nc1cccc(OCc2cn(Cc3cccc(Cl)c3)nn2)c1`, the Ratio was 0.97 in assay [1] and 0.95 in assay [2].

Turning to `O=[N+]([O-])c1cccc(/C=C/S(=O)(=O)Nc2cccc(-c3nnn(Cc4cccc(Cl)c4)n3)c2)c1`, the Ratio in assay [1] was determined as 0.94; in assay [2], 1.

Take `O=S(=O)(/C=C/c1cccc(Cl)c1)Nc1cccc(OCc2cn(Cc3nc4ccccc4s3)nn2)c1`: the figures for the Ratio in assay [1] and in assay [2] were 1 and 0.98, respectively.

As to `O=S(=O)(/C=C/c1cccc(Cl)c1)Nc1cccc(OCc2cn(Cc3cc4ccccc4[nH]3)nn2)c1`, the values for the Ratio in assay [1] and in assay [2] were 1 and 0.99, respectively.
